Results on 29 molecules are retold here after patent US20240360114A1 (SIRONAX LTD., priority 2021, published 2024).

For orientation: EC50 means the midpoint of the concentration-response curve. High values mean a less potent agent, low ones a more potent agent.

The subject of the first test is HT-1080 cells. Briefly: HT-1080 cell viability assay (ferroptosis induced by RSL3, Cell Titer-Glo). Type of test: cell-based. The note with it: Homo sapiens, HT-1080, 20 h, ferroptosis inducer RSL3, 20 hours, ferroptosis inhibitory activity, Table 2. On the procedure:
Example 2. Determination of EC50 Values in HT-1080 Cell Viability Assay
HT-1080 (ATCC, CCL-121) cells (6000 in 100 μl) were seeded in 96-well plates (Corning) and cultured in a 37° C. incubator with a humidified atmosphere of 5% CO2 for overnight. Cells were then treated with ferroptosis inducer RSL3 (TargetMol) and a 3-fold, 10-point serial dilution series of compounds with 1.1 μM as the highest concentration, for 20 hours. Cell viability was assessed using the Cell Titer-Glo Kit (Promega). The luminescence intensity was measured with a microplate reader (Envision, PerkinElmer), and cell viability was calculated by normalizing the data to untreated controls. The EC50 values of the compounds (e.g., Compounds 1-573 and 574-661) were calculated in GraphPad Prism (GraphPad Software, Inc., San Diego, CA, USA). The curves were fitted using a non-linear regression model with a sigmoidal dose response.
A general note: Cellular ATP, detected with luciferase, serves as a proxy for viable cell number.
Take `CC(C)(C)OC(=O)N[C@H]1CC[C@H](CNc2ccc(N3CC4CC(C3)O4)c(F)c2)CC1` [Compound 506, tert-butyl ((1r,4r)-4-(((4-(6-oxa-3-azabicyclo[3.1.1]heptan-3-yl)-3-fluorophenyl)amino)methyl)cyclohexyl) carbamate]: the EC50 lay in the range of 0.1 to 100 nM. Take `CCN(CCCOC)c1ccc(NC[C@H]2CC[C@H](N)CC2)cc1` [Compound 385, N1-(((1r,4r)-4-aminocyclohexyl)methyl)-N4-ethyl-N4-(3-methoxypropyl) benzene-1,4-diamine]: the concentration giving a half-maximal response (EC50) lay within 100 to 1000 nM. The same measure, in the same setting: the value for `Cc1nc(N2CCOCC2)ccc1NC1C2CC3CC1CC(N)(C3)C2` (centres unmarked) [Compound 517, N4-(2-methyl-6-morpholinopyridin-3-yl)adamantane-1,4-diamine] was 100 to 1000 nM. Still for that read-out and setting: in the case of `CCC(C)(C)c1ccc(NC2CCC(N)C2)cc1` (centres unmarked) [Compound 272, N^1-(4-(tert-pentyl)phenyl)cyclopentane-1,3-diamine] it was 0.1 to 100 nM. The same measure, in the same setting: the value for `CC1(C)CC(C)(C)c2cc(NC3CCC(N)CC3)ccc21` (centres unmarked) [Compound 325A, N1-(1,1,3,3-tetramethyl-2,3-dihydro-1H-inden-5-yl)cyclohexane-1,4-diamine] was 0.1 to 100 nM.

Turning to `Cc1nc(N2CC(C)N(C(=O)C(F)(F)F)C(C)C2)ccc1NC1CC2(CC(N)C2)C1` (centres unmarked) [Compound 554, 1-(4-(5-((6-aminospiro[3.3]heptan-2-yl)amino)-6-methylpyridin-2-yl)-2,6-dimethylpiperazin-1-yl)-2,2,2-trifluoroethan-1-one], the EC50 lay in the range of 0.1 to 100 nM.

In the case of `CC1CN(c2ccc(NC3CC(N)C3)c(F)c2)CC(C)O1` (centres unmarked) [Compound 462, N1-(4-(2,6-dimethylmorpholino)-2-fluorophenyl)cyclobutane-1,3-diamine], the half-maximal effective concentration (EC50) lay in the range of 1000 to 10000 nM.

For the molecule `Cc1nc(N2CC(C)OC(C)C2)ccc1NC1C2CC3CC1CC(CN)(C3)C2` (centres unmarked) [Compound 475A, N-(5-(aminomethyl)adamantan-2-yl)-6-(2,6-dimethylmorpholino)-2-methylpyridin-3-amine], the EC50 was in the range of 0.1 to 100 nM. On the same count and under the same terms, the value for `CC1CC(C)CN(c2ccc(NC[C@H]3CC[C@H](N)CC3)cc2)C1` (some centres unmarked) [Compound 522, N-(((1r,4r)-4-aminocyclohexyl)methyl)-4-(3,5-dimethylpiperidin-1-yl)aniline] was 0.1 to 100 nM; that for `NC1CC2(C1)CC(Nc1ccc(C3CCN(CC(F)(F)F)CC3)cc1)C2` (centres unmarked) [Compound 560, N2-(4-(1-(2,2,2-trifluoroethyl)piperidin-4-yl)phenyl)spiro[3.3]heptane-2,6-diamine] was 0.1 to 100 nM; that for `CC(C)(C)Nc1ccc(C2CCNCC2)cc1` [Compound 207, N-(tert-butyl)-4-(piperidin-4-yl)aniline] was 1000 to 10000 nM. For `CC(C)C1CCN(c2ncc(NC3C4CC5CC3CC(N)(C5)C4)cn2)CC1` (centres unmarked) [Compound 368, N4-(2-(4-isopropylpiperidin-1-yl)pyrimidin-5-yl)adamantane-1,4-diamine], the EC50 was in the range of 0.1 to 100 nM. On the same count and under the same terms, the value for `CCC(C)(C)c1ccc(NC2CC3(CC(N)C3)C2)cc1` (centres unmarked) [Compound 369, N2-(4-(tert-pentyl)phenyl)spiro[3.3]heptane-2,6-diamine] was 0.1 to 100 nM; that for `Cc1cc(N2CCC(C(F)(F)F)CC2)c(F)cc1NC1CCC(C(N)=O)CC1` (centres unmarked) [Compound 435, 4-((5-fluoro-2-methyl-4-(4-(trifluoromethyl)piperidin-1-yl)phenyl)amino)cyclohexane-1-carboxamide] was 0.1 to 100 nM. Same read-out and setting: in the case of `CN(C)CC1CCC(Nc2ccc(C3CCC(C)(C)CC3)cc2)CC1` (single isomer, unassigned) [Compound 97A, N-(4-((dimethylamino)methyl)cyclohexyl)-4-(4,4-dimethylcyclohexyl)aniline] it was 0.1 to 100 nM.

In turn, `Cc1nc(N2CCC(C(F)(F)F)CC2)ccc1NC1CCC(CNC(=O)C2CNC(=O)C2)CC1` (centres unmarked) [Compound 377, N-((4-((2-methyl-6-(4-(trifluoromethyl)piperidin-1-yl)pyridin-3-yl)amino)cyclohexyl)methyl)-5-oxopyrrolidine-3-carboxamide] had a 50% effective concentration (EC50) of 0.1 to 100 nM.

The molecule `NC1CCC(Nc2ccc(N3CCC(C(F)(F)F)CC3)cc2Cl)CC1` (centres unmarked) [Compound 70, N1-(2-chloro-4-(4-(trifluoromethyl)piperidin-1-yl)phenyl)cyclohexane-1,4-diamine] showed an EC50 of 0.1 to 100 nM.

`CC1(C)CCC(c2ccc(NCCNC(=O)[C@H]3CNC(=O)N3)cc2)CC1` [Compound 158, (R)—N-(2-((4-(4,4-dimethylcyclohexyl)phenyl)amino)ethyl)-2-oxoimidazolidine-4-carboxamide] showed an EC50 of 100 to 1000 nM. The same measure, in the same setting: the value for `NNC(=O)C1CC2(CC(Nc3cnc(N4CCC(C(F)(F)F)CC4)nc3)C2)C1` (centres unmarked) [Compound 427, 6-((2-(4-(trifluoromethyl)piperidin-1-yl)pyrimidin-5-yl)amino)spiro[3.3]heptane-2-carbohydrazide] was 0.1 to 100 nM; that for `Cc1nc(N2CC(C)OC(C)C2)ccc1NC1CC2CCC1CC2N` (centres unmarked) [Compound 553, N2-(6-(2,6-dimethylmorpholino)-2-methylpyridin-3-yl)bicyclo[2.2.2]octane-2,5-diamine] was 100 to 1000 nM. The molecule `Cc1cc(N2CCC(C(F)(F)F)CC2)c(F)cc1NC1CCC(N)CC1` (centres unmarked) [Compound 58, N1-(5-fluoro-2-methyl-4-(4-(trifluoromethyl)piperidin-1-yl)phenyl)cyclohexane-1,4-diamine] displayed an EC50 of 0.1 to 100 nM. The same measure, in the same setting: the value for `CC1CCC(Nc2ccc(N3CCC(C(F)(F)F)CC3)cc2)CC1` (centres unmarked) [Compound 4A, N-(4-methylcyclohexyl)-4-(4-(trifluoromethyl)piperidin-1-yl)aniline] was 0.1 to 100 nM; that for `CC(C)(C)c1ccc(NC2CCC(NCCCN)CC2)cc1` (centres unmarked) [Compound 267, 1-N-(3-aminopropyl)-4-N-(4-(tert-butyl)phenyl)cyclohexane-1,4-diamine] was 1000 to 10000 nM. On the same count and under the same terms, the value for `CC1CN(c2ccc(NC3C[C@H]4CC(N)C[C@H]4C3)cc2F)CC(C)O1` (stereo partly drawn) [Compound 460, (3aR, 6aS)-N2-(4-(2,6-dimethylmorpholino)-3-fluorophenyl) octahydropentalene-2,5-diamine] was 0.1 to 100 nM; that for `CC1(C)CCN(c2ccc(NC3CCC(N)CC3)cc2)CC1` (centres unmarked) [Compound 62, N1-(4-(4,4-dimethylpiperidin-1-yl)phenyl)cyclohexane-1,4-diamine] was 0.1 to 100 nM.

Staying with this test, now noted: Homo sapiens, HT-1080, 20 h, ferroptosis inducer RSL3, 20 hours, ferroptosis inhibitory activity, Table 3.
Turning to `Cc1nc(NC(C)(C)C)ccc1NC[C@H]1CC[C@H](N)CC1` [Compound 595, N^5-(((1r,4r)-4-aminocyclohexyl)methyl)-N^2-(tert-butyl)-6-methylpyridine-2,5-diamine], the concentration for a half-maximal effect (EC50) is 0.1 to 100 nM. Same read-out and setting: in the case of `Cc1cc(N2CC(C)(C)OC(C)(C)C2)ccc1NC1CC2(CC(N)C2)C1` (centres unmarked) [Compound 628, N^2-(2-methyl-4-(2,2,6,6-tetramethylmorpholino)phenyl)spiro[3.3]heptane-2,6-diamine] it was 0.1 to 100 nM. `Cc1nc(N2CC[Si](C)(C)CC2)c(F)cc1NC1CC2(CC(N)C2)C1` (centres unmarked) [Compound 638, N^2-(6-(4,4-dimethyl-1,4-azasilinan-1-yl)-5-fluoro-2-methylpyridin-3-yl)spiro[3.3]heptane-2,6-diamine]: the EC50 fell in the range of 0.1 to 100 nM. The same measure, in the same setting: the value for `Cc1cc(NC2CC3(CC(N)C3)C2)ccc1N1CCN(CC(F)(F)F)CC1` (centres unmarked) [Compound 574, N^2-(3-methyl-4-(4-(2,2,2-trifluoroethyl)piperazin-1-yl)phenyl)spiro/3.3/heptane-2.6-diamine] was 0.1 to 100 nM.
